Tests used:
carrageenin edema = assay: Inhibitory effect on carrageenin edema (oral administration); assay type: in vivo, rat (Sprague-Dawley strain)
Description: Inhibitory effect on carrageenin edema.
The experiment was carried out according to a method conforming to Van Arman, C. […] One hour after the administration of the test compound, 0.1 ml of 1% carrageenin solution in physiological saline was injected subcutaneously into the plantar sarface of the right hind paws of the rats. One hour after injection of carrageenin, the volume of the injected paws was measured hourly for 4 hours. Inhibition percent to carrageenin edema (%)* was calculated in comparison with the volume of paws of rats of a control group, to which only 0.3% CMC-Na solution was orally administered. [formula]

[1] = system: gross behaviour of the mice; assay: Gross behaviour (1) (oral administration), Irwin's multi-dimensional observation; settings: oral, 500, 1000, 2000 and 4000 mg/Kg, 4 hours
Description: In 1% gum arabic solution was suspended 2-oxo-3-[4-(1-oxo-2-isoindolinyl)phenyl]butanamide at a concentration of 20%. […] The dosages of the compound were 500, 1000, 2000 and 4000 mg/Kg.
To mice of a control group was administered orally only 1% gum arabic solution.

[2] = system: writhing syndrome due to acetic acid; assay: Analgesic activity, stretching method (oral administration); assay type: in vivo, mouse (ddY-strain)
Description: The experiment was carried out according to a method conforming to Koster R. et al [Federation Proceedings 18, 412, (1960)]. […] 30 Minutes after administration of the test compound, 0.6% acetic acid aqueous solution was injected intraperitoneally to the mice in an amount of 0.1 ml per 10 g of body weight of the mouse, and then frequency of writhing syndrome due to acetic acid was counted for 20 minutes. Inhibition percent to the writhing syndrome was calculated in comparison with frequency of writhing syndrome counted on mice of a control group, to which only 1% gum arabic solution was orally administered.

[3] = system: gross behaviour of the rats; assay: Gross behaviour (2) (oral administration); settings: oral, 500, 1000, 2000 and 4000 mg/Kg, 4 hours
Description: In 0.3% CMC-Na solution was suspended 2-oxo-3-[4-(1-oxo-2-isoindolinyl)phenyl]butanamide in at a concentration of 20%. The 20% CMC-Na suspension was administered orally to 3 male rats in each group (Sprague-Dawley strain) weighing 150 to 200 g. The dosage of the compound were 500, 1000, 2000 and 4000 mg/Kg. […] To rats of a control group was administered orally only 0.3% CMC-Na solution.

gastric mucosa = assay: Effect on gastric mucosa (2) (oral administration); assay type: in vivo, rat (Sprague-Dawley strain); settings: rats, 4 hours
Description: 4 Hours after the administration, the rat was sacrificed with ether, and its stomach was removed. The stomach was treated with 5% formalin for 3 minutes, and gastric mucosa was observed under a stereoscopic microscope. When gastric lesion in the mucosa was found, the number of the lesion in the mucosa was counted.

[4] = system: pain threshold of hind paws (Brewer's yeast); assay: Analgesic activity, Randall and Selitto method (oral administration); assay type: in vivo, rat (Sprague-Dawley strain)
Description: Randall and Selitto method
According to a method conforming to Randall, L. O. and Selitto, J. J. [Archives Internationales de Pharmacodynamie et de Therapie, 111, 409, (1957)], 0.1 ml of 10% Brewer's yeast suspension in physiological saline was injected subcutaneously into the plantar surface of the right hind paws of 5 male rats in each group (Sprague-Dawley strain) weighing 90 to 110 g. 2 Hours after administration of the yeast suspension, each test compound suspended in 0.3% CMC-Na solution was orally administered to the rats in an amount of 1.0 ml per 100 g of body weight of the rat. 30 Minutes, 60 minutes and 120 minutes after administration of the test compounds, threshold values of left and right hind paws of the rats were measured by an electric pressure device made by Daiwa Kinzoku Co., Ltd. (Japan). The change of threshold was obtained by comparing the pain threshold obtained in a group after the yeast injection with that obtained before the yeast injection, in the same group as above. Increasing percent of pain threshold of the test compound was calculated on the basis of the mean changes of threshold of the test group and of that of the control group. Rats of the control group were administered orally only 0.3% CMC-Na solution.
According to the Litchfield-Wilcoxon method [The Journal of Pharmacology and Experimental Therapeutics, 96, 96, (1949)], ED50 value was calculated as follows on the basis of the increasing percent of pain threshold;

[5] = Stability on storage at 50° C. and humidity of 70% for 1 month; assay type: physicochemical; settings: among the compounds (I)
Description: For example, when the compounds (I) are kept at temperature of 50° C., and humidity of 70% for 1 month, no substantial change with respect to their appearances and values of quantitative analysis was observed, and no decomposition product was detected by thin-layer chromatography. Thus compounds (I) are prepared for administration in the form of pharmaceutical compositions according to conventional methods in the field of the art, and it is possible to prepare a pharmaceutical composition which comprises a therapeutically effective amount of at least one compound of the general formula (I) as an active ingredient, i.e. anti-inflammatory composition, in solid administration form (e.g. tablets, granules, powders, capsules, suppository), and liquid administration form (e.g. suspension, emulsion). In that case, as carrier, vehicle, solvent or dispersant, there may be used any of those which are known in the field of art. There may be exemplified water, starch, lactose, crystalline cellulose, magnesium stearate, hydroxypropyl cellulose, mannitol, carboxymethyl cellulose, glycol, ethanol, corn oil, peanut oil, castor oil, cacao butter, isocacao, polyoxyethylene stearate. […]

mice = assay: Acute toxicity (1) (oral administration); assay type: in vivo; settings: mice
Description: (§1) After administration of the compound, the number of mice that died during 7 days was observed, and LD50 value was calculated on the basis of the mortality.

[6] = Acute toxicity (1) (oral administration); assay type: in vivo; settings: in vivo; mouse, oral, 7 days
Description: as §1

rats = assay: Acute toxicity (2) (oral administration); assay type: in vivo; settings: rats
Description: (§2) After administration of the compound, the number of rats that died during 7 days was observed, and LD50 value was calculated on the basis of the mortality.

[7] = Acute toxicity (2) (oral administration); assay type: in vivo; settings: in vivo; rat, oral, 7 days
Description: as §2

[8] = oral, 500, 1000, 2000 and 4000 mg/Kg, 7 days

## CC(C(=O)C(N)=O)c1ccc(N2Cc3ccccc3C2=O)cc1 (centres unmarked) [2-oxo-3-[4-(1-oxo-2-isoindolinyl)phenyl]butanamide]
Carrageenin edema; 12.5 mg/Kg oral, 3 hour after administration
  Inhibition to carrageenin edema: 29.2 ± 6.4%
Carrageenin edema; 12.5 mg/Kg oral, 4 hour after administration
  Inhibition to carrageenin edema: 29.3 ± 4.4%
Carrageenin edema; 25 mg/Kg oral, 3 hour after administration
  Inhibition to carrageenin edema: 29.2 ± 9.0%
Carrageenin edema; 25 mg/Kg oral, 4 hour after administration
  Inhibition to carrageenin edema: 26.6 ± 8.2%
Carrageenin edema; 50 mg/Kg oral, 3 hour after administration
  Inhibition to carrageenin edema: 35.6 ± 3.9%
Carrageenin edema; 50 mg/Kg oral, 4 hour after administration
  Inhibition to carrageenin edema: 34.1 ± 1.2%
Carrageenin edema; 100 mg/Kg oral, 3 hour after administration
  Inhibition to carrageenin edema: 51.0 ± 8.6%
Carrageenin edema; 100 mg/Kg oral, 4 hour after administration
  Inhibition to carrageenin edema: 42.8 ± 6.9%
Carrageenin edema; Rattus norvegicus, oral, from inhibition percent to edema at 3 hours after administration, read-out: ED40
  ED40: 48 mg/kg
[1]
  Abnormal behaviour (depression to spontaneous activity, loss of righting reflex, tremor, convulsion, abnormal gait, loss of pinna reflex, loss of corneal reflex, abnormality of respiration): not observed
[2]; 100 mg/Kg oral
  Inhibition to writhing syndrome: 4%
[2]; 200 mg/Kg oral
  Inhibition to writhing syndrome: 33%
[2]; 400 mg/Kg oral
  Inhibition to writhing syndrome: 62%
[2]; dose range of 100 to 400 mg/Kg
  Dose-response of inhibition to writhing syndrome: clear dose-response
[3]
  Abnormal behaviour (depression to spontaneous activity, loss of righting reflex, tremor, convulsion, abnormal gait, loss of pinna reflex, loss of corneal reflex, abnormality of respiration): not observed
Gastric mucosa; 50 mg/Kg oral
  Mean number of gastric lesion: 0
Gastric mucosa; 100 mg/Kg oral
  Mean number of gastric lesion: 0
Gastric mucosa; 200 mg/Kg oral
  Mean number of gastric lesion: 0.3
Gastric mucosa; 400 mg/Kg oral
  Mean number of gastric lesion: 1.6
Gastric mucosa; 800 mg/Kg oral
  Mean number of gastric lesion: 0.4
[4]; 25 mg/Kg oral, 30 minutes after administration
  Increasing percent of pain threshold: 15.6 ± 10.3%
[4]; 25 mg/Kg oral, 60 minutes after administration
  Increasing percent of pain threshold: 14.1 ± 13.7%
[4]; 25 mg/Kg oral, 120 minutes after administration
  Increasing percent of pain threshold: 22.1 ± 18.5%
[4]; 50 mg/Kg oral, 30 minutes after administration
  Increasing percent of pain threshold: 46.9 ± 4.6%
[4]; 50 mg/Kg oral, 60 minutes after administration
  Increasing percent of pain threshold: 32.7 ± 5.9%
[4]; 50 mg/Kg oral, 120 minutes after administration
  Increasing percent of pain threshold: 48.6 ± 9.0%
[4]; 100 mg/Kg oral, 30 minutes after administration
  Increasing percent of pain threshold: 46.1 ± 6.6%
[4]; 100 mg/Kg oral, 60 minutes after administration
  Increasing percent of pain threshold: 32.4 ± 7.0%
[4]; 100 mg/Kg oral, 120 minutes after administration
  Increasing percent of pain threshold: 39.0 ± 7.3%
[4]; 200 mg/Kg oral, 30 minutes after administration
  Increasing percent of pain threshold: 57.3 ± 14.8%
[4]; 200 mg/Kg oral, 60 minutes after administration
  Increasing percent of pain threshold: 39.7 ± 8.9%
[4]; 200 mg/Kg oral, 120 minutes after administration
  Increasing percent of pain threshold: 39.6 ± 6.5%
[4]; Rattus norvegicus, oral, Litchfield-Wilcoxon method, from increasing percent of pain threshold
  ED50: 100 mg/kg
[5]
  Stability (in words): more stable
mice; after 7 days
  Macroscopic observation of organs in head, thorax and abdominal cavity: No abnormality was observed
mice; [8]
  Abnormal behaviour: not observed
  Death: not observed
  Inhibition to increase of body weight: not observed
[6]
  LD50 at 168 h: > 4000 mg/kg
rats; after 7 days
  Macroscopic observation of organs in head, thorax and abdominal cavity: No abnormality was observed
rats; [8]
  Abnormal behaviour: not observed
  Death: not observed
  Inhibition to increase of body weight: not observed
[7]
  LD50 at 168 h: > 4000 mg/kg
